Patent US20090012144A1 (priority 2000, published 2009)

How the values were obtained:
[1] = log P determination by HPLC (reversed-phase C 18), EEC Directive 79/831 Annex V.A8; type: physicochemical; conditions: HPLC, pH 2.3, 43° C.; read-out: log P (pH 2.3)
Protocol: The log P values given in the tables and Preparation Examples above are determined in accordance with EEC Directive 79/831 Annex V.A8 by HPLC (High Performance Liquid Chromatography) using a reversed-phase column (C 18). Temperature: 43° C. […]
Calibration was carried out using unbranched alkan-2-ones (having 3 to 16 carbon atoms) with known log P values (determination of the log P values by the retention times using linear interpolation between two successive […]).

[2] = test system: Heliothis armigera; experiment: Heliothis armigera test (soya bean shoots, dip); type: in vivo
Protocol: [table] To prepare a suitable preparation of active compound, 1 part by weight of active compound is mixed with the stated amounts of solvent and emulsifier, and the concentrate is diluted with emulsifier-containing water to the desired concentration. Soya bean shoots (Glycine max) are treated by being dipped into the preparation of active compound of the desired concentration and are populated with caterpillars of the cotton bollworm (Heliothis armigera) while the leaves are still moist. After the desired period of time, the kill in % is determined. 100% means that all caterpillars have been killed; 0% means that none of the caterpillars have been killed.

[3] = test system: Amblyomma hebraeum nymphs; experiment: Amblyomma hebraeum (EH) polyphargous tick nymphs/dip treatment; type: in vivo; conditions: 10 ppm, 1 min immersion, after 4 weeks; 100% = no normal ecdysis
Protocol: [table] 20 mg of active compound are dissolved in 1 ml of dimethyl sulphoxide. To prepare a suitable formulation, the solution of active compound is diluted with water to the concentration desired in each case. 10 nymphs which have sucked themselves full are immersed for 1 min in the preparation of active compound to be tested. The animals are transferred to petri dishes (Ø 9.5 cm) fitted with filter paper discs and covered. After the nymphs have remained in a controlled-environment cabinet for 4 weeks, the ecdysis rate is determined. 100% means that none of the animals have undergone normal ecdysis. 0% means that all animals have undergone ecdysis.

[4] = test system: Tetranychus urticae; experiment: Tetranychus test (OP-resistant/dip treatment); type: in vivo
Protocol: [table] To produce a suitable preparation of active compound, 1 part by weight of active compound is mixed with the stated amounts of solvent and emulsifier, and the concentrate is diluted with emulsifier-containing water to the desired concentration. Bean plants (Phaseolus vulgaris) which are heavily infested by all stages of the greenhouse […] spider mite (Tetranychus urticae) are dipped into the preparation of active compound of the desired concentration. After the desired period of time, the efficacy in % is determined. 100% means that all spider mites have been killed; 0% means that none of the spider mites have been killed.

[5] = test system: Heliothis virescens; experiment: Heliothis virescens test (soya bean shoots, dip); type: in vivo
Protocol: [table] To prepare a suitable preparation of active compound, 1 part by weight of active compound is mixed with the stated amounts of solvent and emulsifier, and the concentrate is diluted with emulsifier-containing water to the desired concentration. Soya bean shoots (Glycine max) are treated by being dipped into the preparation of active compound of the desired concentration and are populated with Heliothis virescens caterpillars while the leaves are still moist. After the desired period of time, the kill in % is determined. 100% means that all caterpillars have been killed; 0% means that none of the caterpillars have been killed.

[6] = test system: Amblyomma hebraeum nymphs; experiment: Amblyomma hebraeum (EH) tick nymphs/dip treatment, determination of the ED50; type: in vivo; conditions: 1 min immersion, ecdysis rate after 4 weeks; not determinable = 50% not reached at 1000 ppm
Protocol: [table] 20 mg of active compound are dissolved in 1 ml of dimethyl sulphoxide. To prepare a suitable preparation, the solution of active compound is diluted with water to the concentration desired in each case. For the determination of the ED50 value, a dose-activity curve with the concentration spectrum 1000, 300, 100, 30, 10, 3, 1, 0.3, 0.1, 0.03, 0.01 ppm is prepared. 10 nymphs which have sucked themselves full are immersed for 1 min into the preparation of active compound to be tested. The animals are transferred to petri dishes (Ø 9.5 cm) fitted with filter paper discs and covered. After the nymphs have remained in a controlled-environment cabinet for 4 weeks, the ecdysis rate is determined. 100% means that none of the animals have undergone normal ecdysis. 0% means that all animals have undergone ecdysis. The data are calculated by a 4-parameter logistic curve fit using XLfit (ID Business Solutions Ltd.). If at 1000 ppm 50% mortality has not been reached, the ED50 is judged to be not determinable.

CC(C)(C)[Si](C)(C)Oc1ccc(-c2ccc([C@H]3CCC(c4c(F)cccc4F)=N3)cc2)cc1 [I-8, (2R)-2-(4′-{[tert-butyl(dimethyl)silyl]oxy}-1,1′-biphenyl-4-yl)-5-(2,6-difluorophenyl)-3,4-dihydro-2H-pyrrole]
chromatographic logP [1]: 6.2 | melting point: 33 °C

Fc1cccc(F)c1C1=N[C@@H](c2ccc(-c3ccc(SC(F)(F)F)cc3)cc2)CC1 [drawing 61]
Kill rate in % after 6 d ([2]; 1.6 ppm): 100%

CCOc1cc(C(C)(C)C)ccc1[C@H]1CCC(c2c(F)cccc2F)=N1 [drawing 104]
Effects on ecdysis in % [3]: 100%

[O-][S+](c1ccc(-c2ccc([C@H]3CCC(c4c(F)cccc4F)=N3)cc2)cc1)C(F)(F)F (some centres unmarked) [I-10]
melting point: 146 to 148 °C

Fc1cccc(F)c1C1=N[C@@H](c2ccc(-c3ccc(OC(F)(F)F)cc3)cc2)CC1 [drawing 100]
Kill rate in % after 7 d ([4]; 0.0128 ppm): 95%

Fc1cccc(F)c1C1=N[C@H](c2ccc(-c3ccc(OC(F)(F)F)cc3)cc2)CC1 [drawing 108]
Effects on ecdysis in % [3]: 0%

Fc1cccc(F)c1C1=N[C@@H](c2ccc(-c3ccc(SC(F)(F)F)cc3)cc2)CC1 [drawing 66]
Kill rate in % after 6 d ([5]; 1.6 ppm): 100%

Fc1cccc(F)c1C1=NC(c2ccc(-c3ccc(OC(F)(F)F)cc3)cc2)CC1 (centres unmarked) [drawing 63]
Kill rate in % after 6 d ([5]; 0.32 ppm): 20%

CCOc1cc(C(C)(C)C)ccc1[C@@H]1CCC(c2c(F)cccc2F)=N1 [drawing 105]
Effects on ecdysis in % [3]: 0%

FC(F)=C(F)Oc1ccc(-c2ccc([C@H]3CCC(c4c(F)cccc4F)=N3)cc2)cc1
Kill rate in % after 7 d ([4]; 0.01 ppm): 98%

CCOc1cc(C(C)(C)C)ccc1[C@@H]1CCC(c2c(F)cccc2F)=N1 [drawing 111]
ED 50 (ppm) [6]: notdeterminable

Fc1cccc(F)c1C1=N[C@H](c2ccc(-c3ccc(SC(F)(F)F)cc3)cc2)CC1 [drawing 67]
Kill rate in % after 6 d ([5]; 1.6 ppm): 15%

CCOc1cc(C(C)(C)C)ccc1[C@H]1CCC(c2c(F)cccc2F)=N1 [drawing 98]
Kill rate in % after 7 d ([4]; 0.32 ppm): 90%

Fc1cccc(F)c1C1=N[C@@H](c2ccc(-c3ccc(OC(F)(F)F)cc3)cc2)CC1 [drawing 107]
Effects on ecdysis in % [3]: 100%

Fc1cccc(F)c1C1=N[C@@H](c2ccc(-c3ccc(OC(F)(F)F)cc3)cc2)CC1 [drawing 64]
Kill rate in % after 6 d ([5]; 0.32 ppm): 90%

CCOc1cc(C(C)(C)C)ccc1C1CCC(c2c(F)cccc2F)=N1 (centres unmarked) [drawing 109]
ED 50 (ppm) [6]: 0.27 ppm

OC1([C@H]2CCC(c3c(F)cccc3F)=N2)C=CC(c2ccccc2)=CC1 (stereo partly drawn) [I-9, 4′-[(2R)-5-(2,6-difluorophenyl)-3,4-dihydro-2H-pyrrol-2-yl]-1,1′-biphenyl-4′-ol]
melting point: 217 °C

CCOc1cc(C(C)(C)C)ccc1C1CCC(c2c(F)cccc2F)=N1 (centres unmarked) [drawing 103]
Effects on ecdysis in % [3]: 100%

Fc1cccc(F)c1C1=N[C@H](c2ccc(-c3ccc(SC(F)(F)F)cc3)cc2)CC1 [drawing 62, reference compound]
Kill rate in % after 6 d ([2]; 1.6 ppm): 0%

Fc1cccc(F)c1C1=N[C@@H](c2ccc(-c3ccc(OC(F)(F)F)cc3)cc2)CC1 [drawing 59]
Kill rate in % after 6 d ([2]; 8 ppm): 100%

O=S(=O)(c1ccc(-c2ccc([C@H]3CCC(c4c(F)cccc4F)=N3)cc2)cc1)C(F)F [I-14]
melting point: 148 to 150 °C

Fc1cccc(F)c1C1=N[C@@H](c2ccc(-c3ccc(OC(F)(F)F)cc3)cc2)CC1 [drawing 113]
ED 50 (ppm) [6]: 0.20 ppm

Fc1cccc(F)c1C1=N[C@H](c2ccc(-c3ccc(OC(F)(F)F)cc3)cc2)CC1 [drawing 60, reference compound]
Kill rate in % after 6 d ([2]; 8 ppm): 0%

CCOc1cc(C(C)(C)C)ccc1[C@@H]1CCC(c2c(F)cccc2F)=N1 [drawing 99, reference compound]
Kill rate in % after 7 d ([4]; 8 ppm): 0%

Fc1cccc(F)c1C1=NC(c2ccc(-c3ccc(OC(F)(F)F)cc3)cc2)CC1 (centres unmarked) [drawing 112]
ED 50 (ppm) [6]: 0.58 ppm

Fc1cccc(F)c1C1=N[C@H](c2ccc(-c3ccc(OC(F)(F)F)cc3)cc2)CC1 [drawing 65]
Kill rate in % after 6 d ([5]; 8 ppm): 0%

Fc1cccc(F)c1C1=N[C@H](c2ccc(-c3ccc(OC(F)(F)F)cc3)cc2)CC1 [drawing 114]
ED 50 (ppm) [6]: 549.86 ppm

Fc1cccc(F)c1C1=N[C@H](c2ccc(-c3ccc(OC(F)(F)F)cc3)cc2)CC1 [drawing 101, reference compound]
Kill rate in % after 7 d ([4]; 0.0128 ppm): 0%

CCOc1cc(C(C)(C)C)ccc1[C@H]1CCC(c2c(F)cccc2F)=N1 [drawing 110]
ED 50 (ppm) [6]: 0.14 ppm

CCOc1cc(C(C)(C)C)ccc1C1CCC(c2c(F)cccc2F)=N1 (centres unmarked) [drawing 97, reference compound]
Kill rate in % after 7 d ([4]; 0.32 ppm): 0%

Fc1cccc(F)c1C1=NC(c2ccc(-c3ccc(OC(F)(F)F)cc3)cc2)CC1 (centres unmarked) [drawing 106]
Effects on ecdysis in % [3]: 100%
